Source: PMC11868579 (Nature Communications, 2024)
Several values for one entry are separate records, joined by “and”; a condition that tells them apart may be missing. Identical values can stand only once.

How the values were obtained:
Caco-2 monolayer = experiment: Caco-2 permeability assay; assay type: in vitro ADME
Procedure: Caco-2 permeability Assay
The permeability of Compound 4 was assessed using the CacoReady system.
Compound 4 and control compounds (propranolol, antipyrine, and vinblastine) were incubated at a final concentration of 10 µM in duplicate to either the apical (180 µL) of the monolayer to measure apical to basolateral transport (A > B) across the cell barrier or to the basolateral side (750 µL) to measure the basolateral to apical transport (B > A). For A > B spiking, test and control compounds were diluted from 10 mM DMSO stocks to 10 µM in HBSS buffer with 100 mM CaCl2·2H2O, 50 mM MgCl2·5H2O, and 0.5 mg/mL lucifer yellow made to volume with sterile water (lucifer yellow was used to determine the integrity of the Caco-2 monolayer). For B > A compound spiking, test and control compounds were prepared as for the A > B solutions without the addition of lucifer yellow. Test and control compounds were incubated for 1 h at +37 °C in a highly humidified atmosphere of 95% air and 5% CO2. […]

[1] = Aqueous kinetic solubility at pH 7.5 by qNMR; assay type: physicochemical; details: 50 mM HEPES, 100 mM NaCl, 1 mM TCEP
Procedure: Measurement of aqueous kinetic solubility at pH 7.5
Solubility was measured in 50 mM HEPES, 100 mM NaCl (15% D2O, 85% H2O) in the presence of 1 mM TCEP at pH 7.5. Samples were prepared at 50 mM in DMSO-d6, diluted x 50 into buffer affording nominal concentrations of 1 mM and analysed by 1H quantitative NMR. Spectra were acquired at 300K in 5 mm tubes on a 400 MHz Bruker Avance III HD spectrometer equipped with a BBO-F probe using water suppression (presat/Watergate). A 5 mM sample of 4-hydroxybenzoic acid was used

[2] = assay type: physicochemical
Source text: Chrom kinetic Plasma Caco-2 microsomal
Cmpd Chemical MW LogD solubility protein permeability intrinsic
# Structure (Da) (pH binding (Papp x10-6 clearance […]
Supplementary notes Table Physicochemical and in vitro pharmacokinetic properties of compound 4.
Experimental procedures for the measurement of ChromLogD, aqueous solubility, plasma protein binding, Caco2 permeability and microsomal […]
Determination of Chromatographic LogD (ChromLogD7.4)
Chromatographic hydrophobicity index (CHI) values were measured using reversed phase HPLC column (PolymerX RP-1, Phenomenex, UK) with a fast acetonitrile gradient at starting mobile phase of pH = 7.4. CHI values are derived directly from the gradient retention times by using a calibration line obtained for standard compounds.
The CHI value approximates to the volume % organic concentration when the compound elutes. CHI is linearly transformed into ChromLogD7.4 by least-square fitting of experimental CHI values to calculated C logP values for over 20,000 research compounds using the following formula: ChromLogD7.4 = 0.0857CHI-2.001.
(1 picture or pasted object on this page, not shown here)

eIF4E:eIF4G interaction = eIF4E:eIF4G interaction (Homo sapiens, UniProt P06730); experiment: Electro-chemiluminescent binding assay, eIF4E:eIF4G, SW620 cell lysates; assay type: biochemical; design: endogenous in cells; host or cells: SW620 cells (lysates); details: for eIF4G:eIF4E luminescence signal normalised to DMSO control: SW620, Expt 1, Expt 2, Fig. 4d
Procedure: This assay uses plates with carbon electrodes and electro-chemiluminescent labels (SULFO-TAGs) that are conjugated to detection antibodies. When an electric current is applied to the plate electrodes the SULFO-TAG labels will emit light that is measured to quantify analytes in the sample. […] The plates were washed with 3 ×150 µl/well MSD wash buffer (cat#R61AA-1; 0.2% Tween-20 in PBS), then blocked with 150 µl/well block buffer (MSD, cat# R93AA) for 1 h. […] The incubated plates were washed 4x in 150 µl in MSD wash buffer and were re-blocked by the addition of 25 μl of blocking buffer containing a 1:500 dilution of the secondary antibody and incubated for 1 hr at RT with rotational shaking. […] Plates were then washed again 4x in 150 µl in MSD wash buffer and 25 μl of a 1:50 dilution of Goat anti-rabbit Sulfo-Tag (MSD, Cat# R32AB-1) in MSD blocking buffer was added and the plates incubated for 1 h at RT with rotational shaking. After a final wash step, 150 μl Read Buffer T4X (MSD, Cat# R92-TC2) was added and the plate read using the MSD QuickPlex SQ 120 plate reader.

parent H1299 cells = experiment: MCL1 and growth in parental H1299 cells; assay type: cell-based, human
Procedure: Real time monitoring of cell growth was performed with the IncuCyte ZOOM live cell imaging system (Essen BioSciences, USA). Cells were seeded in 96 well plates (Corning, cat#353072) and treated on the next day. The resulting phase-contrast images were analysed using IncuCyte ZOOM 2018A software and results were expressed as percentage confluency of cells.
After seeding overnight in 6 well plates (Corning, cat#353046), cells were treated with compounds for the indicated times and concentration, harvested and the cell pellet lysed on ice in cell lysis buffer (Cell Signaling, cat#9803), supplemented with 1x Halt^TM protease inhibitor cocktail (Fisher Scientific, cat#78429) and cOmplete^TM protease inhibitor cocktail (Sigma-Aldrich, cat#11836153001) for 1 hr. Protein was quantified using BCA protein kit (Fisher Scientific, cat#23225). Western blot was performed using NuPAGE^TM 4–12% Bis-Tris gels (Fisher Scientific, cat#NP0336BOX) and transferred using the Invitrogen iBLOT^TM gel transfer device system (Fisher Scientific, Cat#IB21001). […] All primary antibodies were diluted (1:1000) in 5% BSA (Sigma-Aldrich, cat#A7906) in 1x TBS and 0.1% Tween 20 (Sigma-Aldrich, cat#P1379), except for vinculin (1:2000) that was diluted in casein blocker (Sigma-Aldrich, cat#1610782). […] Quantitative densitometry analysis of protein bands was performed using Image J v1.53 software.

eIF4E:eIF4G interaction, sequence (P06730 2-217 limits assumed): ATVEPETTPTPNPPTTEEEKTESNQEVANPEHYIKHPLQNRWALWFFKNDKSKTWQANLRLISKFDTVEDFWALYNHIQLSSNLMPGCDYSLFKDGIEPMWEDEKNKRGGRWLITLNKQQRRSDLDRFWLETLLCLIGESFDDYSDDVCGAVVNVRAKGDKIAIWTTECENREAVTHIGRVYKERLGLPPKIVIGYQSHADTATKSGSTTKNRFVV

Row | SMILES | permeability in Caco2 assay (Caco-2 monolayer) | Caco-2 permeability Papp (A-B) (Caco-2 monolayer; 10 µM, 1 h) [×10⁻⁶ cm/s] | efflux ratio (Caco-2 monolayer; Caco2) | Aqueous kinetic solubility (pH7.5) [1] [µM] | Chrom LogD (pH 7.5) [2] | eIF4G:eIF4E luminescence signal normalised to DMSO control (eIF4E:eIF4G interaction; 0.4 μM) | eIF4G:eIF4E luminescence signal normalised to DMSO control (eIF4E:eIF4G interaction; 4 μM) | eIF4G:eIF4E luminescence signal normalised to DMSO control (eIF4E:eIF4G interaction; 12 μM) | eIF4G:eIF4E luminescence signal normalised to DMSO control (eIF4E:eIF4G interaction; 40 μM) | eIF4G:eIF4E SW620, luminescence ratio normalised to DMSO control (eIF4E:eIF4G interaction; SW620 lysates, 100 µM, 30 min, single experiments Expt 1, Expt 2) | EC50 (eIF4E:eIF4G interaction; read-out: EC50, eIF4G binding to eIF4E, SW620 cell lysates, 30 min) [µM] | effect on MCL1 or proliferation in parent cells (parent H1299 cells)
1 | CC[C@H](O[C@H](C)CO)c1ccc(-c2ccccc2F)cc1NCCO [Compound 4] | good permeability | 9 | 1.5 | 400 | 4.6 | 89% and 92.6% | 47.4% and 46.9% | 33.5% and 31.6% | 20.4% and 20.8% | 23% and 19% | 2.6 | 
2 | CC[C@H](C(=O)N1CCCC[C@H]1C(=O)O[C@H](CCc1ccc(OC)c(OC)c1)c1ccccc1OCC(=O)NCCCCCCC(=O)N[C@H](C(=O)N1C[C@H](O)C[C@H]1C(=O)N[C@@H](C)c1ccc(-c2scnc2C)cc1)C(C)(C)C)c1cc(OC)c(OC)c(OC)c1 [dTAG^V-1] |  |  |  |  |  |  |  |  |  |  |  | no effect on MCL1 or proliferation
